# Measurements reported in US10052304B2, “Compositions and methods for cancer therapy” (UNIVERSITY OF IOWA RESEARCH FOUNDATION, priority 2015, dated 2018).
# Key:
# NCI-H292 cells = assay: Clonogenic survival assay, NCI-H292 NSCLC cells; type: cell-based, human; conditions: for effect of the intracellular agent on ascorbate toxicity (clonogenic survival): 3 h pre-incubation, washed prior to ascorbate ('intracellular'), 200 μM DFO/1 mM DTPA, 1 mM EDTA or 250 μM FAS; for effect of the agent on ascorbate toxicity (clonogenic survival): agent added before and/or during 1 h ascorbate exposure
# Experimental: (§1) Treatment conditions for individual experiments are as described in the figure legends and summarized in the Supplemental Experimental Procedures.
# (§2) 1-2×10^5 cells were plated in 60 mm cell culture dishes and grown in their respective media for 48 h before exposed to experimental conditions. […] For AdGPx1 experiments, cells were supplemented with 50 nM sodium selenite following transduction and throughout clonogenic growth. […] After treatment, cells were washed with PBS and clonogenic assay was completed in their respective media. Briefly, floating and attached cells were collected and total cells per plate were counted. An experimentally derived number of cells were plated into each well of a 6-well cell culture plate in their respective media. For HEL92.1.7 suspension cells, cells were seeded in a top layer of 0.4% (w/v) agarose to allow for quantifiable colony formation. […] Normalized survival fractions were calculated by comparing plating efficiencies of each treatment group against the control group within a given experiment.
# NHA = conditions: FAS 3 h, washed, then ascorbate 1 h
# Experimental: After treatment, cells were washed with PBS and clonogenic assay was completed in their respective media as previously described (Fath et al., 2011). Treatment conditions for individual experiments are as described in the figure legends and summarized in the Supplemental Experimental Procedures.
# as §2, with “formation. After sufficient time (7-12 days, cell type-dependent), cells were fixed in 70% ethanol and stained with a Brilliant Blue methanol solution.” for “formation.”
# NHAs = assay: Cellular labile iron pool (Calcein-AM flow cytometry), NHAs; type: cell-based, human; conditions: 100 μM or 250 μM FAS for 3 h
# Experimental: The labile iron pool (LIP) was visualized using the fluorescent dye Calcein-AM as previously described (Epsztejn et al., 1997) with modifications. After labeling, samples were divided into two flow cytometry sample tubes, to which 100 μM 2′,2′-bipyridyl (BIP) was added to one tube and analyzed by flow cytometry. BIP tubes were incubated for at least 15 minutes before analysis to allow for full chelation of intracellular labile iron. The LIP (A.U.)=MFIBIP−MFINoBIP was normalized against the control samples to calculate the relative labile iron pool.
# The labile iron pool (LIP) was visualized using the fluorescent dye Calcein-AM as previously described with modifications (Epsztejn et al., 1997). Briefly, after sample treatment, cells were trypsinized, spun at 1,200 rpm for 5 min, and resuspended at approximately 1×10^6 cells mL-1 in 500 nM Calcein-AM in PBS. Samples were incubated for 15 min at 4% O2 in a humidity controlled environment (37° C., 5% CO2). Subsequently, samples were pelleted, washed in PBS, and resuspended in 1 mL PBS before dividing each sample into two flow cytometry sample tubes, to which 100 μM 2′,2′-bipyridyl (BIP) was added to one tube. Samples were kept at room temperature and analyzed on a LSR II Flow Cytometer (BD Biosciences; λex=488 nm, λem=515/20 nm). […]
# H1299 cells = assay: Clonogenic survival assay, H1299 NSCLC cells; type: cell-based, human; conditions: agent added before and/or during 1 h ascorbate exposure
# Experimental: as §1, §2
# [1] = test system: human non-small cell lung cancer cells; assay: Clonogenic cell killing of lung cancer cells by ascorbate with chelators (cell line not given); type: cell-based
# cancer cells = conditions: following exposure
# U87 cells = assay: Clonogenic survival assay, U87 GBM cells; type: cell-based, human; conditions: agent added before and/or during 1 h ascorbate exposure
# Experimental: as §1, §2
# U118 cells = assay: Clonogenic survival assay, U118 GBM cells; type: cell-based, human; conditions: agent added before and/or during 1 h ascorbate exposure
# Experimental: as §1, §2
molecule,measurement,setting,value
"O=S(=O)([O-])[O-].O=S(=O)([O-])[O-].[Fe+2].[NH4+].[NH4+] [FAS, ferrous ammonium sulfate]",effect of the intracellular agent on ascorbate toxicity (clonogenic survival),NCI-H292 cells,sensitized cancer cells to ascorbate
same,effect of the agent on ascorbate toxicity (clonogenic survival),NHA,sensitizes NHAs to ascorbate toxicity
same,cellular LIP after FAS,NHAs,increases the LIP
"O=CC[C@@H](O)[C@H](O)[C@H](O)CO [2-DG, 2-deoxy-D-glucose]",effect of the agent on ascorbate toxicity (clonogenic survival),NCI-H292 cells,did not suppress ascorbate toxicity
same,effect of the agent on ascorbate toxicity (clonogenic survival),H1299 cells,did not suppress ascorbate toxicity
"O=C(O)CN(CCN(CC(=O)O)CC(=O)O)CC(=O)O [EDTA, ethylenediaminetetraacetic acid]",effect of the intracellular agent on ascorbate toxicity (clonogenic survival),NCI-H292 cells,enhanced ascorbate toxicity
same,effect of EDTA on cytotoxicity of pharmacological ascorbate,"[1]; EDTA 1 mM and greater, cell culture",significantly enhance the cytotoxicity of pharmacological ascorbate
same,enhanced ascorbate toxicity after EDTA pretreatment and wash-out,[1]; EDTA pretreatment followed by washing out,sufficient to get enhanced toxicity
same,clonogenic cell survival,"[1]; high dose EDTA + pharmacological ascorbate + standard-of-care chemotherapy vs standard of care alone, two NSCLC cell lines",decreases clonogenic cell survival
same,effect of iron chelators on ascorbate toxicity / response to therapy (FIG. 8),[1]; lung cancer cells treated with ascorbate and iron chelators,enhance responses to cancer therapy
same,cellular retention of 14C labeled EDTA,cancer cells,retained with cancer cells following exposure
"PEG-catalase: polyethylene glycol conjugated catalase which converts H2O2 into H2O and O2 (conjugate, UniProt P00432 2-527, looked up, PEG conjugate, polyethylene glycol conjugated catalase which converts H2O2 into H2O and O2) Catalase: ADNRDPASDQMKHWKEQRAAQKPDVLTTGGGNPVGDKLNSLTVGPRGPLLVQDVVFTDEMAHFDRERIPERVVHAKGAGAFGYFEVTHDITRYSKAKVFEHIGKRTPIAVRFSTVAGESGSADTVRDPRGFAVKFYTEDGNWDLVGNNTPIFFIRDALLFPSFIHSQKRNPQTHLKDPDMVWDFWSLRPESLHQVSFLFSDRGIPDGHRHMNGYGSHTFKLVNANGEAVYCKFHYKTDQGIKNLSVEDAARLAHEDPDYGLRDLFNAIATGNYPSWTLYIQVMTFSEAEIFPFNPFDLTKVWPHGDYPLIPVGKLVLNRNPVNYFAEVEQLAFDPSNMPPGIEPSPDKMLQGRLFAYPDTHRHRLGPNYLQIPVNCPYRARVANYQRDGPMCMMDNQGGAPNYYPNSFSAPEHQPSALEHRTHFSGDVQRFNSANDDNVTQVRTFYLKVLNEEQRKRLCENIAGHLKDAQLFIQKKAVKNFSDVHPEYGSRIQALLDKYNEEKPKNAVHTYVQHGSHLSAREKANL",effect of the agent on ascorbate toxicity (clonogenic survival),NCI-H292 cells,inhibited cancer cell killing by ascorbate
"catalase: exogenous bovine catalase, 50 U mL^−1, added with ascorbate (protein, UniProt P00432 2-527, looked up) Catalase: ADNRDPASDQMKHWKEQRAAQKPDVLTTGGGNPVGDKLNSLTVGPRGPLLVQDVVFTDEMAHFDRERIPERVVHAKGAGAFGYFEVTHDITRYSKAKVFEHIGKRTPIAVRFSTVAGESGSADTVRDPRGFAVKFYTEDGNWDLVGNNTPIFFIRDALLFPSFIHSQKRNPQTHLKDPDMVWDFWSLRPESLHQVSFLFSDRGIPDGHRHMNGYGSHTFKLVNANGEAVYCKFHYKTDQGIKNLSVEDAARLAHEDPDYGLRDLFNAIATGNYPSWTLYIQVMTFSEAEIFPFNPFDLTKVWPHGDYPLIPVGKLVLNRNPVNYFAEVEQLAFDPSNMPPGIEPSPDKMLQGRLFAYPDTHRHRLGPNYLQIPVNCPYRARVANYQRDGPMCMMDNQGGAPNYYPNSFSAPEHQPSALEHRTHFSGDVQRFNSANDDNVTQVRTFYLKVLNEEQRKRLCENIAGHLKDAQLFIQKKAVKNFSDVHPEYGSRIQALLDKYNEEKPKNAVHTYVQHGSHLSAREKANL",effect of the agent on ascorbate toxicity (clonogenic survival),NCI-H292 cells,inhibited
same,effect of the agent on ascorbate toxicity (clonogenic survival),H1299 cells,inhibited
same,effect of the agent on ascorbate toxicity (clonogenic survival),U87 cells,inhibited
same,effect of the agent on ascorbate toxicity (clonogenic survival),U118 cells,inhibited
